From ChEMBL document CHEMBL1201862, “PubChem BioAssay data set” (2004)
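A five-concentration, 48-hour dose response in 96-well plates underlies each endpoint, interpolated linearly between surrounding concentrations. The concentration for 50% growth inhibition is given as GI50.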 Active and inactive are the calls of the source. Rule as the data show it: active = GI50 up to about 1.1 µM and inactive = higher.

Tests used:
Experiment in all cases: inhibition of tumour cell growth, NCI panel, 48 h
[1] = system: CCRF-CEM
[2] = system: HCT-116
[3] = system: HT-29
[4] = system: MCF7
[5] = system: MDA-N
[6] = system: NCI-H23
[7] = system: NCI-H522
[8] = system: OVCAR-3
[9] = system: OVCAR-4
[10] = system: OVCAR-8
[11] = system: PC-3
[12] = system: SF-268
[13] = system: SF-295
[14] = system: SK-MEL-28
[15] = system: SK-MEL-2
[16] = system: SNB-19
[17] = system: T47D
[18] = system: UACC-257
[19] = system: UO-31
[20] = system: SNB-75

SMILES | GI50 [1] | GI50 [2] | GI50 [3] | GI50 [4] | GI50 [5] | GI50 [6] | GI50 [7] | GI50 [8] | GI50 [9] | GI50 [10] | GI50 [11] | GI50 [12] | GI50 [13] | GI50 [14] | GI50 [15] | GI50 [16] | GI50 [17] | GI50 [18] | GI50 [19] | GI50 [20]
Fc1cccc(Cl)c1/C=N\N=C1c2ccccc2-c2ccccc21 | > 100 µM (inactive) | > 100 µM (inactive) | 58.9 µM (inactive) | 11.8 µM (inactive) | 48.3 µM (inactive) | > 100 µM (inactive) | > 100 µM (inactive) | 69.2 µM (inactive) | 49.4 µM (inactive) | 79.8 µM (inactive) | 97.9 µM (inactive) | > 100 µM (inactive) | 61.7 µM (inactive) | 76 µM (inactive) | > 100 µM (inactive) | 98.9 µM (inactive) | 30 µM (inactive) | > 100 µM (inactive) | > 100 µM (inactive) | 
COC(=O)C(CCCCN)NC(C)=O.Cc1ccc(C(=O)Nc2ccc(S(=O)(=O)O)c3cc(S(=O)(=O)O)cc(S(=O)(=O)O)c23)cc1NC(=O)c1cccc(NC(=O)Nc2cccc(C(=O)Nc3cc(C(=O)Nc4ccc(S(=O)(=O)O)c5cc(S(=O)(=O)O)cc(S(=O)(=O)O)c45)ccc3C)c2)c1 | > 50 µM (inactive) | > 50 µM (inactive) | > 50 µM (inactive) | > 50 µM (inactive) | > 50 µM (inactive) | > 50 µM (inactive) |  | > 50 µM (inactive) | 0.5 µM (active) | > 50 µM (inactive) | > 50 µM (inactive) | > 50 µM (inactive) | > 50 µM (inactive) | > 50 µM (inactive) | > 50 µM (inactive) | > 50 µM (inactive) | > 50 µM (inactive) | > 50 µM (inactive) | > 50 µM (inactive) | > 50 µM (inactive)
O=C(/C=C/c1cccs1)c1ccsc1 | 16.5 µM (inactive) |  | 19.3 µM (inactive) | 10.4 µM (inactive) | 18.9 µM (inactive) | 18.1 µM (inactive) |  |  | 51.1 µM (inactive) | 27.6 µM (inactive) | 22.4 µM (inactive) | 45.1 µM (inactive) | 32.4 µM (inactive) | 32.7 µM (inactive) | 36.2 µM (inactive) | 18.9 µM (inactive) | 26.3 µM (inactive) | 23 µM (inactive) | 17.6 µM (inactive) | 27.8 µM (inactive)
COC(=O)/C=C(/C(=O)OC)c1c(C)c(C)c2c(C)cc(C)cc(C)c1-2 | > 100 µM (inactive) | 17.4 µM (inactive) | 11.6 µM (inactive) | 25.2 µM (inactive) | 2.24 µM (inactive) | 23.8 µM (inactive) | 12.2 µM (inactive) | 22.1 µM (inactive) | 76.2 µM (inactive) | 46.3 µM (inactive) | 28.8 µM (inactive) | > 100 µM (inactive) | 20.9 µM (inactive) | 33.1 µM (inactive) | 26.2 µM (inactive) | 58.7 µM (inactive) | 80.9 µM (inactive) | 22 µM (inactive) | 13.6 µM (inactive) | 
O=C1C(Br)=C(c2ccccc2)O/C1=C/C(=O)c1ccc(Br)cc1 | 26.3 µM (inactive) | 39.4 µM (inactive) | 36.1 µM (inactive) | 36.7 µM (inactive) | 15.5 µM (inactive) | > 100 µM (inactive) | 16.9 µM (inactive) | 83.2 µM (inactive) | 66.7 µM (inactive) | 27 µM (inactive) | 14.2 µM (inactive) | 53.1 µM (inactive) |  | 51.3 µM (inactive) |  | > 100 µM (inactive) | 32.9 µM (inactive) |  | 28.8 µM (inactive) | > 100 µM (inactive)
CC(=O)OC1CC2(C)C(OC(C)=O)CC1C2(C)C (stereo unspecified) | > 100 µM (inactive) | > 100 µM (inactive) | > 100 µM (inactive) | > 100 µM (inactive) | > 100 µM (inactive) | > 100 µM (inactive) | > 100 µM (inactive) | > 100 µM (inactive) | > 100 µM (inactive) | > 100 µM (inactive) | > 100 µM (inactive) | > 100 µM (inactive) | > 100 µM (inactive) | > 100 µM (inactive) |  | > 100 µM (inactive) | > 100 µM (inactive) | > 100 µM (inactive) | > 100 µM (inactive) | > 100 µM (inactive)
Cc1cc2c(=O)c3ccccc3oc2c(C#N)c1C | > 100 µM (inactive) | > 100 µM (inactive) | 43.6 µM (inactive) | > 100 µM (inactive) | > 100 µM (inactive) | > 100 µM (inactive) |  |  | > 100 µM (inactive) | > 100 µM (inactive) | 40.3 µM (inactive) | > 100 µM (inactive) | > 100 µM (inactive) | > 100 µM (inactive) |  | > 100 µM (inactive) | > 100 µM (inactive) | > 100 µM (inactive) | > 100 µM (inactive) | > 100 µM (inactive)
COc1cccc2c1OC(c1ccc(Cl)cc1)C([N+](=O)[O-])=C2 (stereo unspecified) | 0.356 µM (active) | 1.35 µM (inactive) | 1.35 µM (inactive) | 1.2 µM (inactive) | 1.42 µM (inactive) | 3.77 µM (inactive) | 1.59 µM (inactive) | 2.54 µM (inactive) | 2.17 µM (inactive) | 1.93 µM (inactive) | 1.66 µM (inactive) | 3.18 µM (inactive) | 3.1 µM (inactive) | 2.61 µM (inactive) |  | 4.28 µM (inactive) | 2.34 µM (inactive) | 1.91 µM (inactive) | 1.77 µM (inactive) | 
O=[N+]([O-])C(=C(Nc1cccc2cccnc12)Nc1cccc2cccnc12)C(Cl)=C(Cl)Cl | 34 µM (inactive) | 45 µM (inactive) | > 39 µM (inactive) | 13.5 µM (inactive) | 31.7 µM (inactive) | 31.6 µM (inactive) | 17.3 µM (inactive) | 27.3 µM (inactive) | 34 µM (inactive) | 33.2 µM (inactive) | > 76 µM (inactive) | 42.9 µM (inactive) | 43 µM (inactive) | > 56.9 µM (inactive) |  | > 96.2 µM (inactive) | 29.1 µM (inactive) |  | > 100 µM (inactive) | > 100 µM (inactive)
Cc1c(C(=O)OCc2ccccc2)[n+]([O-])c2cc(F)c(F)cc2[n+]1[O-] | 0.944 µM (active) | 1.63 µM (inactive) | 2.01 µM (inactive) | 2.31 µM (inactive) |  | 2.37 µM (inactive) | 2 µM (inactive) | 1.01 µM (active) | 1.77 µM (inactive) | 2.07 µM (inactive) | 2.52 µM (inactive) | 1.25 µM (inactive) | 2.16 µM (inactive) | 2.06 µM (inactive) | 1.67 µM (inactive) | 2.08 µM (inactive) | 1.51 µM (inactive) | 2.19 µM (inactive) | 1.79 µM (inactive) | 2.7 µM (inactive)
O=P(O)(O)c1ccc2c(c1)OCCOCCOCCOCCO2 | > 100 µM (inactive) | > 100 µM (inactive) | > 100 µM (inactive) | > 100 µM (inactive) | > 100 µM (inactive) | > 100 µM (inactive) | > 100 µM (inactive) |  |  | > 100 µM (inactive) | > 100 µM (inactive) | > 100 µM (inactive) | > 100 µM (inactive) | > 100 µM (inactive) |  | > 100 µM (inactive) | > 100 µM (inactive) | > 100 µM (inactive) | > 100 µM (inactive) | > 100 µM (inactive)
CC[C@H](C)[C@H]1NC(=O)[C@@H](NC(=O)[C@@H](CC(C)C)N(C)C(=O)C2CCCN2C(=O)[C@H](C)O)[C@@H](C)OC(=O)[C@H](Cc2ccc(OC)cc2)N(C)C(=O)[C@@H]2CCCN2C(=O)[C@H](CCCCNC(=O)OCc2ccccc2)NC(=O)[C@H](C)C(=O)[C@H](C(C)C)OC(=O)C[C@@H]1O (stereo partly specified) | 6.46 µM (inactive) | 3.28 µM (inactive) | 3.37 µM (inactive) | 2.77 µM (inactive) | 5.68 µM (inactive) | 10.7 µM (inactive) | 3.37 µM (inactive) | 4.01 µM (inactive) | 5.47 µM (inactive) | 19.7 µM (inactive) | 3.93 µM (inactive) | 3.91 µM (inactive) | 8.63 µM (inactive) | 12.2 µM (inactive) | 1.96 µM (inactive) | 2.66 µM (inactive) | 7.67 µM (inactive) | 2.49 µM (inactive) | 23.4 µM (inactive) | 
CC[C@@]12CCCN3CC[C@]4(c5cccc(OC)c5N(C(C)=O)[C@@H]4CC1)[C@H]32 [ASPIDOSPERMINE] | 26.2 µM (inactive) | 44.9 µM (inactive) | 21 µM (inactive) | 63.1 µM (inactive) | 34.6 µM (inactive) | > 100 µM (inactive) | 32.3 µM (inactive) | > 100 µM (inactive) | 92.9 µM (inactive) | > 100 µM (inactive) | 43 µM (inactive) | > 100 µM (inactive) | 46.6 µM (inactive) | 80.2 µM (inactive) | 90.4 µM (inactive) | > 100 µM (inactive) | > 100 µM (inactive) | 31.8 µM (inactive) | 68.5 µM (inactive) | 
CCOC(=O)Nc1ccc2c(c1)N(C(=O)CCN(CC)CC)c1ccccc1S2 [ETHACIZINE] | 34.3 µM (inactive) | 17.6 µM (inactive) | 17.3 µM (inactive) | 25.3 µM (inactive) |  | 31.8 µM (inactive) | 65.8 µM (inactive) | 30 µM (inactive) | 43.6 µM (inactive) | 25 µM (inactive) | 31.4 µM (inactive) | 27.8 µM (inactive) | 22.1 µM (inactive) | 28.5 µM (inactive) | 22 µM (inactive) | 47 µM (inactive) | 27.4 µM (inactive) | 16.3 µM (inactive) | 27.5 µM (inactive) | 2.09 µM (inactive)
